Data from US7138242B2, “Olfactory receptor expression libraries and methods of making and using them” (Johns Hopkins University, priority 1998, dated 2006).
Residue numbers refer to the chain shown, from its start.

Assays:
[1] = target: T1, full-length rat I7 olfactory receptor fused to rhodopsin N-terminus (Rattus norvegicus, UniProt P23270); assay: Ca2+ imaging, HEK-293 cells expressing translocation domain (rhodopsin N-terminus) fused to full-length rat I7; type: cell-based
T1 construct: expressed in transfected cells; host or cells: HEK-293 with Gα15,16
T1 sequence (P23270 1-327): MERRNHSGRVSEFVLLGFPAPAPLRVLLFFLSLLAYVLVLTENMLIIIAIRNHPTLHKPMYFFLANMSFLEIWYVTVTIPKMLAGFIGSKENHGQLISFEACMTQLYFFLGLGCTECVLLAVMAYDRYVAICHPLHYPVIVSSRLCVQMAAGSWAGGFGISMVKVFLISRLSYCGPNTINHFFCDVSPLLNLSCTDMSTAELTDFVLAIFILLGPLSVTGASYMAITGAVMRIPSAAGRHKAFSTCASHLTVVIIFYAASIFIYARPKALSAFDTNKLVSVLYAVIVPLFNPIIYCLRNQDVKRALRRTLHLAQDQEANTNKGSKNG

[2] = tested on: Rho/M4NC-ratI7 TM II–VII chimeric receptor; assay: Ca2+ imaging, HEK-293 cells co-expressing Rho/M4NC-ratI7 TM II–VII chimeric construct and Gα15,16; type: cell-based, rat; conditions: for relative Ca2+ response, octanal vs heptanal: identical experiments to mouse I7 chimera
Procedure: HEK-293 cells (obtained from the ATCC) were grown in DMEM supplemented with 10% fetal bovine serum, penicillin (100 U/ml), streptomycin (100 μg/ml) and L-glutamine (2 mM) in 5% CO2. Before transfection, the cells were seeded onto poly-L-lysine-coated 10.5×35×0.17 mm glass coverslips (Bellco) placed in the 60 mm culture dishes. Calcium phosphate-mediated transfections were performed in a 60 mm dish with 3 to 4 μg of receptor construct DNA, 1 μg of pCIS Gα 15 and Gα16 expression vector (Offermanns (1995) supra). 2 μg of pBluescript carrier DNA, and 0.3 μg of pRSV-T antigen expression vector (Gorman (1990) DNA and Protein Eng. Tech. 2:3–9). After 5 to 7 hr incubation, the cells were washed once with PBS containing 0.5 mM EDTA and 10% DMSO, then with PBS before continuing growth in regular media for 40–50 hr.
Efficient screening of expressed olfactory receptors with a large number of ligands by functional analysis requires a robust and sensitive assay system. Although the established role of cAMP in olfactory signaling offers a biochemical approach involving measurement of cAMP production in response to odorant stimulation, an alternative, rapid assay is to co-express the cloned olfactory receptors with G protein Gα15,16 subunits (see, e.g., Offermanns (1995) J. Biol. Chem. 270:15175–15180), which can promiscuously couple 7-transmembrane domain receptors that normally signal through other second messengers to the PIP2 pathway. In this reporter system, (olfactory) receptor activation leads to the generation of an IP3-mediated increase in intracellular Ca^2+, which can be measured at the single-cell level with high sensitivity and good temporal resolution using the dye FURA-2 and radiofluorometric imaging. These attributes were able to compensate for the low transfection efficiency in transient expression systems that would hinder more traditional biochemical assays.
These transfected cells were then tested for their ability to functionally respond to ligand-receptor binding. The ligand, the adrenergic agonist isoproterenol, was “bath” applied to the transfected cells and single cell Ca^2+-imaging was performed. Cells were pre-loaded with the Ca^2+-sensitive fluorescent dye FURA-2 AM (Molecular Probes) by bathing in serum-free DMEM containing 4 μM of the membrane permeant chemical for 1 hr at 37° C., then washed with a standard bath solution (130 mM NaCl, 2 mM CaCl2, 5 mM KCl, 10 mM glucose, 10 mM Na.HEPES/pH 7.4 at room temperature). For each experiment, a glass coverslip with FURA-2 loaded HEK 293 cells was introduced into an open-topped, longitudinal microperfusion chamber (300 μl bath volume mounted on a Zeiss Axiovert 135 microscope equipped with an F Fluar 40×/1.30 oil-immersion lens. The cells were superfused with test solutions typically for 30 to 40 seconds (5 ml/application) and washed out with 5 ml of bath solution at the end of each application. Each test solution was freshly diluted and manually applied with a micropipette into the chamber. Because of this manual procedure, there could be several seconds of delay in actual application from electronic tick marks used to define the beginning of application in each graph. At the same time, the solution flow might not be completely laminar. In most cases, the onset of Ca2+ rise in response to a specific solution occurred within 15 seconds of the beginning of solution application, though longer delays were sometimes observed. Acetylcholine was applied at the end of each experiment at 10 μM for 15–20 seconds. Ratiometric Ca^2+ measurements were performed as described by Grynkiewicz (1985) 260:3440–3450, with modifications using the Zeiss/Attofluor-Ratiovision imaging system. At 5-second intervals, the cells were sequentially illuminated for less than 100 ms, first at 340 nm and then at 380 nm. Fluorescence emission at 510 nm was monitored for each excitation wavelength via an intensified CCD camera. […]

[3] = tested on: Rho/M4NC-β2 TM II–VII (TM II–VII region from the β2-adrenergic receptor in pCMV-Rho/M4NC); assay: Single-cell FURA-2 Ca2+ imaging, HEK-293 cells co-transfected with Rho/M4NC-β2 TM II–VII and Gα15,16; type: cell-based, human; conditions: bath application; cells co-transfected with Gα15,16
Procedure: HEK-293 cells (obtained from the ATCC) were grown in DMEM supplemented with 10% fetal bovine serum, penicillin (100 U/ml), streptomycin (100 μg/ml) and L-glutamine (2 mM) in 5% CO2. […] After 5 to 7 hr incubation, the cells were washed once with PBS containing 0.5 mM EDTA and 10% DMSO, then with PBS before continuing growth in regular media for 40–50 hr.
Efficient screening of expressed olfactory receptors with a large number of ligands by functional analysis requires a robust and sensitive assay system. […] In this reporter system, (olfactory) receptor activation leads to the generation of an IP3-mediated increase in intracellular Ca^2+, which can be measured at the single-cell level with high sensitivity and good temporal resolution using the dye FURA-2 and radiofluorometric imaging.
A construct with the TM II–VII region from the β2-adrenergic receptor inserted in the pCMV-Rho/M4NC vector (Rho/M4NC-β2 TM II–VII) was co-transfected with Gα15,16 into HEK-293 cells. […] Images of fluorescent cells were obtained on a Zeiss 510 confocal microscope with excitation at 488 nm.
These transfected cells were then tested for their ability to functionally respond to ligand-receptor binding. The ligand, the adrenergic agonist isoproterenol, was “bath” applied to the transfected cells and single cell Ca^2+-imaging was performed. Cells were pre-loaded with the Ca^2+-sensitive fluorescent dye FURA-2 AM (Molecular Probes) by bathing in serum-free DMEM containing 4 μM of the membrane permeant chemical for 1 hr at 37° C., then washed with a standard bath solution (130 mM NaCl, 2 mM CaCl2, 5 mM KCl, 10 mM glucose, 10 mM Na.HEPES/pH 7.4 at room temperature). […] Acetylcholine was applied at the end of each experiment at 10 μM for 15–20 seconds. […] At 5-second intervals, the cells were sequentially illuminated for less than 100 ms, first at 340 nm and then at 380 nm. Fluorescence emission at 510 nm was monitored for each excitation wavelength via an intensified CCD camera. Averaged pixel intensities within 40 to 100 regions of interest, corresponding to 40 to 100 individual cells, were digitized and stored on a computer. Attofluor-Ratiovision software (Atto Instruments) was used to determine the Ca^2+-dependent fluorescence signal expressed as the F340/F380 ratio.

[4] = target: T2, full-length mouse I7 receptor, residue 206 valine/isoleucine substitution (Mus musculus, UniProt Q9QWU6, I206V); assay: Ca2+ imaging, full-length mouse I7 receptor with valine/isoleucine substitution at residue 206; type: cell-based; conditions: heptanal vs octanal
T2 construct: expressed in transfected cells; not repeated
T2 sequence (Q9QWU6 1-327 I206V): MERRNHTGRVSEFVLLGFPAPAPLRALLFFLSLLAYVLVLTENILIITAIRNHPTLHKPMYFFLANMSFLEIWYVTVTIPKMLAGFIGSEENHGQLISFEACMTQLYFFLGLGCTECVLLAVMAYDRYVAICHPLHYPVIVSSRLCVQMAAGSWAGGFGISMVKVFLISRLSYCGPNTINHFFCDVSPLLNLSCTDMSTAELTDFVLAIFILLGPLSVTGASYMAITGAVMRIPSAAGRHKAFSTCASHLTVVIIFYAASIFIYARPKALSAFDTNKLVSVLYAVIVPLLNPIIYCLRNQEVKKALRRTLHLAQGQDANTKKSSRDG

[5] = target: T3, full-length rat I7 receptor, residue 206 valine/isoleucine substitution (Rattus norvegicus, UniProt P23270, V206I); assay: Ca2+ imaging, full-length rat I7 receptor with valine/isoleucine substitution at residue 206; type: cell-based; conditions: heptanal vs octanal
T3 construct: expressed in transfected cells; not repeated
T3 sequence (P23270 1-327 V206I): T1 sequence (P23270 1-327) with V206I

[6] = tested on: Rho/M4NC-mouse I7 transmembrane II–VII chimeric receptor; assay: Ca2+ imaging, Rho/M4NC-mouse I7 TM II–VII chimeric receptor in HEK-293 cells; type: cell-based; conditions: 10 μM

CCCCCCCC=O [octanal]
intracellular Ca2+ response ([1]; 1 μM): responded | intracellular Ca2+ response ([2]; 10 μM): Ca^2+ transient was observed | relative Ca2+ response, octanal vs heptanal [2]: responded better to octanal than to heptanal | Ca2+ response to a second application ([2]; second application, even at 30 μM (desensitization)): little or no effect | dependence of the Ca2+ response on Gα15,16 ([2]; with vs without Gα15,16): required the presence of Gα15,16 | intracellular Ca2+ response (FURA-2 F340/F380) [3]: no effect | ligand preference [4]: preferentially recognize octanal

CCCCCCC=O [heptanal]
ligand preference [5]: preferentially recognize heptanal | intracellular Ca2+ response ([1]; 30 μM): small response | intracellular Ca2+ response ([2]; 10 μM): not 10 μM | intracellular Ca2+ response ([2]; 30 μM): responded to 30 μM | relative Ca2+ response, octanal vs heptanal [2]: responded better to octanal than to heptanal | intracellular Ca2+ response (FURA-2 F340/F380) [3]: no effect | intracellular Ca2+ response [6]: responded only to heptanal
